According to PubChem BioAssay AID248 (DTP/NCI, 2004):
Values joined by “and” are separate entries in the source; they are usually repeats but may differ in a detail not shown here. Identical values can stand only once. Inconclusive results and toxic doses are left out. No stated cut-off is given here; in the data, active means T/C of 150% or more; inactive means T/C below 125%.

Tested on: L1210 leukemia ip in BDF1 mice, survival T/C
Test: NCI In Vivo Anticancer Drug Screen. Data for tumor model L1210 Leukemia (intraperitoneal) in B6D2F1 (BDF1) mice
Settings: endpoint: mean survival time, higher = longer survival
Method in brief: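 Antitumor effect is assessed in tumor-bearing animals. Survival in the compound arm is compared with a vehicle-dosed control arm and expressed as their quotient.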

[1] = dose: 100.0 mg/kg/injection, schedule: Q01DX001 (ip), vehicle: carboxymethylcellulose (CMC)
[2] = dose: 200.0 mg/kg/injection, schedule: Q01DX001 (ip), vehicle: carboxymethylcellulose (CMC)
[3] = dose: 400.0 mg/kg/injection, schedule: Q01DX001 (ip), vehicle: carboxymethylcellulose (CMC)
[4] = dose: 100.0 mg/kg/injection, schedule: Q04DX003 (ip), vehicle: Klucel (hydroxypropylcellulose) (HPC)

Measured: T/C

CC(C)(CO)N=Cc1ccccc1O.CC(C)(CO)N=Cc1ccccc1O.[Cu].[Cu]
inactive: dose: 75.0 mg/kg/injection, schedule: Q01DX001 (ip), vehicle: other 98 % of control | dose: 150.0 mg/kg/injection, schedule: Q01DX001 (ip), vehicle: other 96 % of control | dose: 300.0 mg/kg/injection, schedule: Q01DX001 (ip), vehicle: other 98 % of control

C1=CC2OC1c1ccccc12
inactive: dose: 50.0 mg/kg/injection, schedule: Q01DX001 (ip), vehicle: carboxymethylcellulose (CMC) 95 % of control | [1] 92 % of control | [2] 106 % of control | [3] 97 % of control

c1ccc2cc(CCSSCCc3ccc4ccccc4c3)ccc2c1
inactive: dose: 200.0 mg/kg/injection, schedule: Q01DX001 (ip), vehicle: saline 87 % of control

Fc1ccc(C(=S)Nc2ccccc2)cc1
inactive: dose: 100.0 mg/kg/injection, schedule: Q01DX001 (ip), vehicle: acetone 104 % of control | dose: 200.0 mg/kg/injection, schedule: Q01DX001 (ip), vehicle: acetone 98 % of control | dose: 400.0 mg/kg/injection, schedule: Q01DX001 (ip), vehicle: acetone 92 % of control

Cc1ccc(NP(N)(=O)Nc2ccc(C)cc2)cc1
inactive: dose: 50.0 mg/kg/injection, schedule: Q01DX001 (ip), vehicle: alcohol 102 % of control | dose: 100.0 mg/kg/injection, schedule: Q01DX001 (ip), vehicle: alcohol 102 % of control | dose: 200.0 mg/kg/injection, schedule: Q01DX001 (ip), vehicle: alcohol 108 % of control | dose: 400.0 mg/kg/injection, schedule: Q01DX001 (ip), vehicle: alcohol 96 % of control

CC(C)(Cl)/N=N/C(C)(C)Cl
inactive: dose: 25.0 mg/kg/injection, schedule: Q01DX001 (ip), vehicle: Klucel (hydroxypropylcellulose) (HPC) 99 % of control | dose: 25.0 mg/kg/injection, schedule: Q04DX003 (ip), vehicle: Klucel (hydroxypropylcellulose) (HPC) 98 % of control | dose: 50.0 mg/kg/injection, schedule: Q01DX001 (ip), vehicle: Klucel (hydroxypropylcellulose) (HPC) 92 % of control | dose: 50.0 mg/kg/injection, schedule: Q04DX003 (ip), vehicle: Klucel (hydroxypropylcellulose) (HPC) 97 % of control | dose: 100.0 mg/kg/injection, schedule: Q01DX001 (ip), vehicle: Klucel (hydroxypropylcellulose) (HPC) 94 % of control and 95 % of control | [4] 98 % of control

CC(=O)Oc1ccc2ccccc2c1CN(Cc1c(OC(C)=O)ccc2ccccc12)C(C)=O
inactive: dose: 100.0 mg/kg/injection, schedule: Q01DX001 (ip), vehicle: other 96 % of control | dose: 400.0 mg/kg/injection, schedule: Q01DX001 (ip), vehicle: other 93 % of control

CSc1nnc2sc(C)nn12
inactive: [1] 104 % of control | [2] 104 % of control | [3] 102 % of control

COc1ccc(NC(=O)O/N=C2\CN(S(=O)(=O)c3ccc(C)cc3)CCc3ccccc32)cc1
inactive: [4] 91 % of control | dose: 200.0 mg/kg/injection, schedule: Q04DX003 (ip), vehicle: Klucel (hydroxypropylcellulose) (HPC) 94 % of control | dose: 400.0 mg/kg/injection, schedule: Q04DX003 (ip), vehicle: Klucel (hydroxypropylcellulose) (HPC) 96 % of control

O=c1[nH]c2c(c(=O)[nH]1)CCCCC2
inactive: dose: 100.0 mg/kg/injection, schedule: Q04DX002 (ip), vehicle: Klucel (hydroxypropylcellulose) (HPC) 95 % of control | dose: 200.0 mg/kg/injection, schedule: Q04DX002 (ip), vehicle: Klucel (hydroxypropylcellulose) (HPC) 89 % of control | dose: 400.0 mg/kg/injection, schedule: Q04DX002 (ip), vehicle: Klucel (hydroxypropylcellulose) (HPC) 92 % of control

Cc1c2c(ccc3ccccc32)c[n+]2ccccc12
inactive: dose: 1.1 mg/kg/injection, schedule: Q01DX009 (ip), vehicle: saline 97 % of control | dose: 1.1 mg/kg/injection, schedule: Q03HX024 (ip), vehicle: saline 98 % of control | dose: 1.7 mg/kg/injection, schedule: Q01DX009 (ip), vehicle: saline 105 % of control | dose: 1.7 mg/kg/injection, schedule: Q03HX024 (ip), vehicle: saline 100 % of control | dose: 1.8 mg/kg/injection, schedule: Q01DX Z (ip), vehicle: methylcellulose (MC) 116 % of control | dose: 2.0 mg/kg/injection, schedule: Q01DX009 (ip), vehicle: saline 96 % of control | dose: 2.5 mg/kg/injection, schedule: Q01DX Z (ip), vehicle: carboxymethylcellulose (CMC) 105 % of control | dose: 2.6 mg/kg/injection, schedule: Q01DX009 (ip), vehicle: saline 102 % of control | dose: 2.6 mg/kg/injection, schedule: Q03HX024 (ip), vehicle: saline 108 % of control | dose: 2.7 mg/kg/injection, schedule: Q01DX Z (ip), vehicle: methylcellulose (MC) 105 % of control | dose: 3.0 mg/kg/injection, schedule: Q01DX009 (ip), vehicle: saline 108 % of control | dose: 4.0 mg/kg/injection, schedule: Q01DX009 (ip), vehicle: saline 103 % of control | dose: 4.0 mg/kg/injection, schedule: Q01DX Z (ip), vehicle: methylcellulose (MC) 107 % of control | dose: 4.0 mg/kg/injection, schedule: Q03HX024 (ip), vehicle: saline 98 % of control | dose: 4.4 mg/kg/injection, schedule: Q01DX Z (ip), vehicle: methylcellulose (MC) 119 % of control | dose: 4.5 mg/kg/injection, schedule: Q01DX009 (ip), vehicle: saline 108 % of control | dose: 5.0 mg/kg/injection, schedule: Q01DX001 (ip), vehicle: carboxymethylcellulose (CMC) 100 % of control | dose: 5.0 mg/kg/injection, schedule: Q01DX Z (ip), vehicle: carboxymethylcellulose (CMC) 119 % of control | dose: 6.0 mg/kg/injection, schedule: Q01DX009 (ip), vehicle: saline 105 % of control and 107 % of control | dose: 6.0 mg/kg/injection, schedule: Q03HX024 (ip), vehicle: saline 104 % of control and 106 % of control | dose: 6.25 mg/kg/injection, schedule: Q04DX003 (ip), vehicle: saline 104 % of control | dose: 6.6 mg/kg/injection, schedule: Q01DX Z (ip), vehicle: methylcellulose (MC) 121 % of control | dose: 9.0 mg/kg/injection, schedule: Q01DX009 (ip), vehicle: saline 107 % of control | dose: 10.0 mg/kg/injection, schedule: Q01DX001 (ip), vehicle: carboxymethylcellulose (CMC) 107 % of control | dose: 11.0 mg/kg/injection, schedule: Q01DX001 (ip), vehicle: saline 109 % of control | dose: 11.0 mg/kg/injection, schedule: Q04DX003 (ip), vehicle: saline 107 % of control | dose: 12.5 mg/kg/injection, schedule: Q04DX003 (ip), vehicle: saline 108 % of control | dose: 13.0 mg/kg/injection, schedule: Q01DX009 (ip), vehicle: saline 111 % of control | dose: 15.0 mg/kg/injection, schedule: Q01DX Z (ip), vehicle: methylcellulose (MC) 97 % of control | dose: 17.0 mg/kg/injection, schedule: Q01DX001 (ip), vehicle: saline 110 % of control | dose: 17.0 mg/kg/injection, schedule: Q04DX003 (ip), vehicle: saline 105 % of control | dose: 20.0 mg/kg/injection, schedule: Q01DX001 (ip), vehicle: carboxymethylcellulose (CMC) 105 % of control | dose: 20.0 mg/kg/injection, schedule: Q01DX009 (ip), vehicle: saline 123 % of control | dose: 26.0 mg/kg/injection, schedule: Q01DX001 (ip), vehicle: saline 107 % of control | dose: 26.0 mg/kg/injection, schedule: Q04DX003 (ip), vehicle: saline 112 % of control

c1cnc2sccc2c1
inactive: dose: 50.0 mg/kg/injection, schedule: Q01DX009 (ip), vehicle: saline with Tween-80 113 % of control | dose: 100.0 mg/kg/injection, schedule: Q01DX009 (ip), vehicle: saline with Tween-80 95 % of control | dose: 100.0 mg/kg/injection, schedule: Q04DX003 (ip), vehicle: saline with Tween-80 102 % of control | dose: 200.0 mg/kg/injection, schedule: Q04DX003 (ip), vehicle: saline with Tween-80 103 % of control
